Reference: the kinase profiling compilation of Christmann-Franck et al. (2016)

Tests used:
Assay in all cases: radiometric filter-binding kinase assay, Kinase HotSpot
Conditions in all cases: compound 0.5 µM; ATP 10 µM
[1] = target: MARK1 (human) (UniProt Q9P0L2)
[2] = target: ROS1 (human) (UniProt P08922)
[3] = target: MINK1 (human) (UniProt Q8N4C8)
[4] = target: TEC (human) (UniProt P42680)
[5] = target: EPHA1 (human) (UniProt P21709)
[6] = target: MAP4K5 (human) (UniProt Q9Y4K4)
[7] = target: PAK4 (human) (UniProt O96013)
[8] = target: MST1R (human) (UniProt Q04912)
[9] = target: CAMK4 (human) (UniProt Q16566)
[10] = target: MAPKAPK5 (human) (UniProt Q8IW41)
[11] = target: PRKCZ (human) (UniProt Q05513)
[12] = target: EPHA3 (human) (UniProt P29320)
[13] = target: PHKG1 (human) (UniProt Q16816)
[14] = target: GRK7 (human) (UniProt Q8WTQ7)
[15] = target: TSSK1B (human) (UniProt Q9BXA7)
[16] = target: SRC (human) (UniProt P12931)
Sequence of SRC (human) (P12931 whole entry, looked up): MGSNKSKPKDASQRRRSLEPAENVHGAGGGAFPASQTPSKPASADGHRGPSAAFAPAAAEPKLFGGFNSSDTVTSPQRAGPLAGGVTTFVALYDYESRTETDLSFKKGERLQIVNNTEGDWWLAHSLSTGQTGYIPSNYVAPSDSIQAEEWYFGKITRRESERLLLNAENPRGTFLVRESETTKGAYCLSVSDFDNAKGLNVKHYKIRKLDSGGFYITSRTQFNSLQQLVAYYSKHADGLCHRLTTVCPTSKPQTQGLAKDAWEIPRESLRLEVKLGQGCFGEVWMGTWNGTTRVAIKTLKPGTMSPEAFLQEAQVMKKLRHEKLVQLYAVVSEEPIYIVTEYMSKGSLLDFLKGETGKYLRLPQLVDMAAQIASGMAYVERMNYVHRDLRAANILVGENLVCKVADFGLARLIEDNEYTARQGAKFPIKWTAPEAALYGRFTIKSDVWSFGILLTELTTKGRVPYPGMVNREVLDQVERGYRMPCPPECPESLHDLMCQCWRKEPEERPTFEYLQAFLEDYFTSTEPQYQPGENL

[17] = target: MAPKAPK3 (human) (UniProt Q16644)
Sequence of MAPKAPK3 (human) (Q16644 whole entry, looked up): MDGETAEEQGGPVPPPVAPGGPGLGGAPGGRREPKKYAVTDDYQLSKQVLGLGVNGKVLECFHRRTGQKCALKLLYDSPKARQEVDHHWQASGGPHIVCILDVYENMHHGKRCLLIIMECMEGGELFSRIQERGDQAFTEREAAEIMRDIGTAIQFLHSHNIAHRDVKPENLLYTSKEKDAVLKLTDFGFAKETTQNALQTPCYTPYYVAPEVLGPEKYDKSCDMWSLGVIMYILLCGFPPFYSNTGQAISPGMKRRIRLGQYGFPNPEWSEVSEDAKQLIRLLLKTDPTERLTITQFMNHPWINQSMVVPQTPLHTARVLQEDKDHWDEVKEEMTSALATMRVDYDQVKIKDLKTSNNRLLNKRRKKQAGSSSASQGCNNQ

[18] = target: FLT1 (human) (UniProt P17948)
[19] = target: CSF1R (human) (UniProt P07333)
[20] = target: FRK (human) (UniProt P42685)
Sequence of FRK (human) (P42685 whole entry, looked up): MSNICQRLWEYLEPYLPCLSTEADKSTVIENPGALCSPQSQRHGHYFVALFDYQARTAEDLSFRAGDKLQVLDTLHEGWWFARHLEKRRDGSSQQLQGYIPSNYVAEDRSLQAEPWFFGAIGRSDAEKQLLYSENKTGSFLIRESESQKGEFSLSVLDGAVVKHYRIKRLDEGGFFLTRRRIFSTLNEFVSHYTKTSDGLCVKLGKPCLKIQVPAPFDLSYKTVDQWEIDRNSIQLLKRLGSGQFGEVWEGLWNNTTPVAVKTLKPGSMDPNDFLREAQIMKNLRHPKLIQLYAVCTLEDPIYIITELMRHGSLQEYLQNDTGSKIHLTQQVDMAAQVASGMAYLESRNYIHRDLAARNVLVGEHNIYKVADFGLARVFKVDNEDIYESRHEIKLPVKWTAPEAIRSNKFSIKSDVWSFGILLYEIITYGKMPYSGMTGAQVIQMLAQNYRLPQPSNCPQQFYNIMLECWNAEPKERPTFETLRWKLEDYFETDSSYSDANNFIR

[21] = target: GSG2 (human) (UniProt Q8TF76)
[22] = target: OXSR1 (human) (UniProt O95747)
[23] = target: STK33 (human) (UniProt Q9BYT3)
Sequence of STK33 (human) (Q9BYT3 whole entry, looked up): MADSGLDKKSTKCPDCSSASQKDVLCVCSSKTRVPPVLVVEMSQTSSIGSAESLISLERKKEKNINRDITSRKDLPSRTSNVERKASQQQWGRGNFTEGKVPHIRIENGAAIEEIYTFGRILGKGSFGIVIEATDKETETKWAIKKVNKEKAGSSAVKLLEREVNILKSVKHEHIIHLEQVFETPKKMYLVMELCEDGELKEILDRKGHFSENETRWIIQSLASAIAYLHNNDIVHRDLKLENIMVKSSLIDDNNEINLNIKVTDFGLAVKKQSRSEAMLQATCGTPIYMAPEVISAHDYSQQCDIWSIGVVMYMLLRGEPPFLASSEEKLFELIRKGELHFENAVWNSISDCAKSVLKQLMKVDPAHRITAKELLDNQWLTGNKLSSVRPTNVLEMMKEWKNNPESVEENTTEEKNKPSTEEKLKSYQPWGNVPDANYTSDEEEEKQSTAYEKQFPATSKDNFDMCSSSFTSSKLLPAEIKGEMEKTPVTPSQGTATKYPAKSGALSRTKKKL

[24] = target: GSK3A (human) (UniProt P49840)
[25] = target: AKT1 (human) (UniProt P31749)
[26] = target: EPHA7 (human) (UniProt Q15375)
[27] = target: LCK (human) (UniProt P06239)
Sequence of LCK (human) (P06239 whole entry, looked up): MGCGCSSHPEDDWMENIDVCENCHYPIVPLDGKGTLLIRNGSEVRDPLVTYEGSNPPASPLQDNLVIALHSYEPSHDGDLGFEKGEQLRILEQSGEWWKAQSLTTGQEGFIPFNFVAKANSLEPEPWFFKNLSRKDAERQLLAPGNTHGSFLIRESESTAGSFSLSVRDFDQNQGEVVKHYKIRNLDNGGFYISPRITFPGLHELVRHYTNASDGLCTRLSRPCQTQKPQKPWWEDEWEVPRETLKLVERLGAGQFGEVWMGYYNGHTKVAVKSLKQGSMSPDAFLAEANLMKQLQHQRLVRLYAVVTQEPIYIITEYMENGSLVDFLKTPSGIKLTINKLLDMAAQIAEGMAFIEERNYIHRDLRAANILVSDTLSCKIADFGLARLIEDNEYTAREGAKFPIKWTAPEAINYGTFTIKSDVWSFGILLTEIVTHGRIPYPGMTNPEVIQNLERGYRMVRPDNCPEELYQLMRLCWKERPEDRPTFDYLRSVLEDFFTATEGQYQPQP

[28] = target: ALK (human) (UniProt Q9UM73)
[29] = target: NLK (human) (UniProt Q9UBE8)
[30] = target: TAOK2 (human) (UniProt Q9UL54)
[31] = target: MUSK (human) (UniProt O15146)
[32] = target: CAMK1D (human) (UniProt Q8IU85)
[33] = target: RPS6KA6 KD1 KD2 (human) (UniProt Q9UK32)
[34] = target: NEK9 (human) (UniProt Q8TD19)
Sequence of NEK9 (human) (Q8TD19 whole entry, looked up): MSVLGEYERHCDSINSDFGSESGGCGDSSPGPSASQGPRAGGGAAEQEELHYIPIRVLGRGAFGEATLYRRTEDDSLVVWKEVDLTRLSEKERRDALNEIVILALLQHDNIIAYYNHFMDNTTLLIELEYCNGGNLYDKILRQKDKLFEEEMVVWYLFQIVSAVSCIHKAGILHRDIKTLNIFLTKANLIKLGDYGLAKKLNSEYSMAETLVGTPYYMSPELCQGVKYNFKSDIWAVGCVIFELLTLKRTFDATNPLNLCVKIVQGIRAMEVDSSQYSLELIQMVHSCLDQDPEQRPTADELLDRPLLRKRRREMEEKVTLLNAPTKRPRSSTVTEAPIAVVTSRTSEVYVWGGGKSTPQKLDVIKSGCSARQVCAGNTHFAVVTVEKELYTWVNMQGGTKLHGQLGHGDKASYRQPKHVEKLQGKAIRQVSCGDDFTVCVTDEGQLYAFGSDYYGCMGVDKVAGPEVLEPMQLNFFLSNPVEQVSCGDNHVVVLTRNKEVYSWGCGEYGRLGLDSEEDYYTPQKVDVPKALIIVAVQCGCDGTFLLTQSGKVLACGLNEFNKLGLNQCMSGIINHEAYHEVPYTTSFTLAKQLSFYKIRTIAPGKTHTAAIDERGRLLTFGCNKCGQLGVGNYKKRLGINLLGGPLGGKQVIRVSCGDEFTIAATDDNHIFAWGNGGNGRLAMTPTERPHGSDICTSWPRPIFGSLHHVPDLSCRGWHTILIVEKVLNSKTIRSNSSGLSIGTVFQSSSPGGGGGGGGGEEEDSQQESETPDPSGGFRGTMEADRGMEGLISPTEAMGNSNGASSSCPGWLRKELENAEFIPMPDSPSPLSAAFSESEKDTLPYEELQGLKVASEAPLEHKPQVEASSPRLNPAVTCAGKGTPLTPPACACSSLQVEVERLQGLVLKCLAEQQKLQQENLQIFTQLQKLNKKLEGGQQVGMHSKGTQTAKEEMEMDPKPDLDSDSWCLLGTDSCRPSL

[35] = target: STK39 (human) (UniProt Q9UEW8)
[36] = target: TAOK1 (human) (UniProt Q7L7X3)
[37] = target: PKN2 (human) (UniProt Q16513)
Sequence of PKN2 (human) (Q16513 whole entry, looked up): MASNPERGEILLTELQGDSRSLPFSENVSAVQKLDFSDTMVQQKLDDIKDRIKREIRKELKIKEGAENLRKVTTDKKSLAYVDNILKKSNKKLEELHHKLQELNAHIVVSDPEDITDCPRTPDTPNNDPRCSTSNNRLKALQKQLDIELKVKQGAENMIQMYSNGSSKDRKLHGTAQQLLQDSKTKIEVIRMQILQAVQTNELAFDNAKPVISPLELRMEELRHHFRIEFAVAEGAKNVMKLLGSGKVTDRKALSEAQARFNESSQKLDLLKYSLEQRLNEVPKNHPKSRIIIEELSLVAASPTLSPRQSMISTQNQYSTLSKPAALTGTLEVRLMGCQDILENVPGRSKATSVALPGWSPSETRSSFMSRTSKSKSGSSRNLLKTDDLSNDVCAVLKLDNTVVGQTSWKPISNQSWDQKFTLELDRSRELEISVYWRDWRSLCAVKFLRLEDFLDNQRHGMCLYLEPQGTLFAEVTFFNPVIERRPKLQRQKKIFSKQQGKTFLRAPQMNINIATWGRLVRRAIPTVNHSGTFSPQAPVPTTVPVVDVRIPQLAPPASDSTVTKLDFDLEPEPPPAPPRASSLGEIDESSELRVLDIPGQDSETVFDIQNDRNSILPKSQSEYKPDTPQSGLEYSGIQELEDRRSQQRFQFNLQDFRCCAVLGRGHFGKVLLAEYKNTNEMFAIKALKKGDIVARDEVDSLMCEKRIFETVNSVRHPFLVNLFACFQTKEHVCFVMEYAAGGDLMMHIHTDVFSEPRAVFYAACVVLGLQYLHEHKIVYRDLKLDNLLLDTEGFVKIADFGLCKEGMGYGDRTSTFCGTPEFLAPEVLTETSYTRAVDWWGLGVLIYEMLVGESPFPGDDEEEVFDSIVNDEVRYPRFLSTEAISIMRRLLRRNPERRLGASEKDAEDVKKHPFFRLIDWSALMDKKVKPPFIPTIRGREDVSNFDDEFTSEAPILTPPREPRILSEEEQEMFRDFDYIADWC

[38] = target: DYRK3 (human) (UniProt O43781)
[39] = target: HIPK2 (human) (UniProt Q9H2X6)
[40] = target: ACVRL1 (human) (UniProt P37023)
[41] = target: ZAP70 (human) (UniProt P43403)
[42] = target: CDK4 CCND3 (human) (UniProt P30281+P11802)

Sequence of TEC (human) (P42680 whole entry, looked up): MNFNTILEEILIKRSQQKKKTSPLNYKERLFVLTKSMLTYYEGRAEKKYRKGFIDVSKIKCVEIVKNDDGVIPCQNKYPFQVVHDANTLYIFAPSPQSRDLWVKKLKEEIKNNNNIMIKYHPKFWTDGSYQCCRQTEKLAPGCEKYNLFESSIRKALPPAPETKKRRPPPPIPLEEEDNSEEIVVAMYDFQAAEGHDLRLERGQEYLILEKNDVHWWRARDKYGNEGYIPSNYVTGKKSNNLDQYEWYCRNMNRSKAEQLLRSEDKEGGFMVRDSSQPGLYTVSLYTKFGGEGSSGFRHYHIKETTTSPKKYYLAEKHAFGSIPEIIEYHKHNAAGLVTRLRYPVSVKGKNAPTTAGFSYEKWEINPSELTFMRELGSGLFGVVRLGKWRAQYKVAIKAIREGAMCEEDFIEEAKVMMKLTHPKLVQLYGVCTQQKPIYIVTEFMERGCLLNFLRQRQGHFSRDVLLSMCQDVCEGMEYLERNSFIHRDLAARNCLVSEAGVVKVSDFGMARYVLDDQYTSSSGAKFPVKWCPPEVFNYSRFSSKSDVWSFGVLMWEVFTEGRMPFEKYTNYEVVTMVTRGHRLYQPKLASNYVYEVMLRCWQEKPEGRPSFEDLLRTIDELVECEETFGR

`CSc1nc(-c2ccc(F)cc2)c(-c2ccnc(NC(C)c3ccccc3)c2)[nH]1` (stereo unspecified) showed a residual activity [1] of 95.3%, a residual activity [2] of 99.1% and a residual activity [3] of 89.6%. The residual activity [4] was 120%, the residual activity [5] was 89.8% and the residual activity [6] was 85.6%. It also gave a residual activity [7] of 96.4%, a residual activity [8] of 81.3% and a residual activity [9] of 106%. The residual activity [10] was 115%, the residual activity [11] was 111% and the residual activity [12] was 82.5%. The residual activity [13] was 91.8%, the residual activity [14] was 100% and the residual activity [15] was 73.5%. The residual activity [16] was 99%, the residual activity [17] was 107% and the residual activity [18] was 71.5%. The residual activity [19] was 104%, the residual activity [20] was 100% and the residual activity [21] was 96.3%. For the same compound, the residual activity [22] was 88.2%, the residual activity [23] was 107% and the residual activity [24] was 94.1%. It also gave a residual activity [25] of 101%, a residual activity [26] of 102% and a residual activity [27] of 102%. The residual activity [28] was 93.3%, the residual activity [29] was 30.7% and the residual activity [30] was 92.7%. The residual activity [31] was 101%, the residual activity [32] was 91.7% and the residual activity [33] was 93.1%. It also gave a residual activity [34] of 89.4%, a residual activity [35] of 95% and a residual activity [36] of 79.9%. For the same compound, the residual activity [37] was 76.1%, the residual activity [38] was 94.2% and the residual activity [39] was 99.9%. It also gave a residual activity [40] of 92.2%, a residual activity [41] of 102% and a residual activity [42] of 111%.

For `Nc1nc(Nc2ccc(S(N)(=O)=O)cc2)nn1C(=O)c1c(F)cccc1F`, the residual activity [1] was 64.1%, the residual activity [2] was 39.5% and the residual activity [3] was 98.1%. The residual activity [4] was 122%, the residual activity [5] was 73.7% and the residual activity [6] was 45.3%. The residual activity [7] was 90%, the residual activity [8] was 115% and the residual activity [9] was 96.8%. The residual activity [10] was 80.3%, the residual activity [11] was 99.9% and the residual activity [12] was 107%. The residual activity [13] was 102%, the residual activity [14] was 65.9% and the residual activity [15] was 85.5%. The residual activity [16] was 76.3%, the residual activity [17] was 98% and the residual activity [18] was 90.7%. The residual activity [19] was 49.2%, the residual activity [20] was 90.9% and the residual activity [21] was 107%. For the same compound, the residual activity [22] was 88.8%, the residual activity [23] was 74.4% and the residual activity [24] was 9.59%. For the same compound, the residual activity [25] was 120%, the residual activity [26] was 68.7% and the residual activity [27] was 87.9%. It also gave a residual activity [28] of 90.1%, a residual activity [29] of 86% and a residual activity [30] of 8.92%. For the same compound, the residual activity [31] was 83.1%, the residual activity [32] was 97.7% and the residual activity [33] was 24.7%. It also gave a residual activity [34] of 82.2%, a residual activity [35] of 89.5% and a residual activity [36] of 18.8%. It also gave a residual activity [37] of 85.6%, a residual activity [38] of 101% and a residual activity [39] of 72.8%. It also gave a residual activity [40] of 88.5%, a residual activity [41] of 94.8% and a residual activity [42] of 34.7%.

Work on `O=c1cc(-c2cccc3c2Sc2ccccc2S3)oc(N2CCOCC2)c1` yielded a residual activity [1] of 100%, a residual activity [2] of 106% and a residual activity [3] of 100%. It also gave a residual activity [4] of 198%, a residual activity [5] of 84.7% and a residual activity [6] of 93.6%. For the same compound, the residual activity [7] was 116%, the residual activity [8] was 111% and the residual activity [9] was 94%. It also gave a residual activity [10] of 94.5%, a residual activity [11] of 102% and a residual activity [12] of 119%. For the same compound, the residual activity [13] was 106%, the residual activity [14] was 99.2% and the residual activity [15] was 107%. For the same compound, the residual activity [16] was 106%, the residual activity [17] was 102% and the residual activity [18] was 90.8%. For the same compound, the residual activity [19] was 91.9%, the residual activity [20] was 99.5% and the residual activity [21] was 106%. It also gave a residual activity [22] of 96.1%, a residual activity [23] of 93.3% and a residual activity [24] of 86.7%. It also gave a residual activity [25] of 113%, a residual activity [26] of 106% and a residual activity [27] of 98.1%. The residual activity [28] was 96.2%, the residual activity [29] was 108% and the residual activity [30] was 101%. It also gave a residual activity [31] of 89.1%, a residual activity [32] of 106% and a residual activity [33] of 98.2%. The residual activity [34] was 110%, the residual activity [35] was 84% and the residual activity [36] was 107%. For the same compound, the residual activity [37] was 72.9%, the residual activity [38] was 84.3% and the residual activity [39] was 105%. For the same compound, the residual activity [40] was 99.9%, the residual activity [41] was 97.1% and the residual activity [42] was 99.2%.
